In patent publication US11883404B2, “Preparation and composition for treatment of malignant tumors” (TAIHO PHARMACEUTICAL CO., LTD., priority 2016, dated 2024):
Structures can show the parent of a compound that is named as a salt. Where two headings read alike, the source gives them in different places.

How the values were obtained:
[1] = test system: human gastric cancer line SNU-16; assay type: in vivo; settings: alone
Description: The day at which the grouping was carried out was defined as Day 0. TV (mm^3)=(Major axis×Minor axis^2)/2(units for the major axis and the minor axis were mm).
(§1) RTV was calculated according to the expression given below from TV values on the day of measurement and on the day of grouping. […] RTV=(TV on the day of measurement)/(TV on the day of grouping) T/C (%)=(Average RTV in each medicine administration group on the day of assessment)/(Average RTV in the control group on the day of assessment)×100

[2] = test system: human endometrial cancer line AN3CA; test: Antitumor effect of Compound 1 and gemcitabine on subcutaneously implanted AN3CA tumor in nude mouse (Example 4); assay type: in vivo, BALB/cAJcl-nu/nu mice; settings: Day 15
Description: Gemcitabine was administered at 100 mg/kg/day from the tail vein at Day 1 and Day 8.

[3] = test system: human endometrial cancer line AN3CA; test: Antitumor effect of Compound 1 and Compound 2 on subcutaneously implanted AN3CA tumor in nude mouse (Example 16); assay type: in vivo, BALB/cAJcl-nu/nu mice; settings: alone, Day 15
Description: The day at which the grouping was carried out was defined as Day 0. TV(mm^3)=(Major axis×Minor axis^2)/2(units for the major axis and the minor axis were mm).
The dose of Compound 2 was set in consideration of well tolerated dose for nude mice, etc.
as §1

[4] = test system: human endometrial cancer line AN3CA; settings: for T/C (%): Day 11
[5] = test system: human endometrial cancer line AN3CA; settings: alone, Day 15
Description: An engrafted tumor was removed from the mice, chopped into fragments of 2 mm square, and then subcutaneously implanted to 6-week-old female BALB/cAJcl-nu/nu mice.
Everolimus was orally administered each day at 2 mg/kg/day for 14 days.

[6] = test system: human gastric cancer line SNU-16; test: Antitumor effect of Compound 1 and paclitaxel on subcutaneously implanted SNU-16 tumor in nude mouse (Example 2); settings: for T/C (%): Day 15
[7] = test system: human endometrial cancer line AN3CA; test: Apoptosis induction, CellEvent Caspase-3/7 Green Detection, Compound 1 and Compound 2 (Example 14); assay type: cell-based; settings: Compound 1 100 nM, Compound 2 100 nM, 24 hours
Description: (§2) The presence or absence of induction of apoptosis by concomitant use was observed using CellEvent™ Caspase-3/7 Green Detection Reagent (Invitrogen Corp.). […] The concentration of Compound 2 was set to 100 nM. These medicines used alone (DMSO was added as a control) or concomitantly were comparatively studied. […] Apoptosis was detected by adding 6 μL of CellEvent™ Caspase-3/7 Green Detection Reagent (Invitrogen Corp.) solution per well to the cells, incubating the cells at 37° C. for 30 minutes, and then measuring cell images in the bright field and fluorescence signals, under a fluorescence microscope. The observed fluorescence signals indicate the induction of Caspase 3/7, and the amplitude of the signals represents the presence or absence of induction of apoptosis-like cell death.

[8] = test system: human small cell lung cancer cell line DMS 114; test: Cell survival rate assay (CellTiter-Glo 2.0), IC50 and combination index of Compound 1 and Compound 2 (Example 15); assay type: cell-based; settings: each medicine alone, 72 hours
Description: A human small cell lung cancer cell line DMS 114 was cultured using a Waymouth's medium containing 10% fetal bovine serum. The cells were maintained at 37° C. under 5% CO2 and subcultured at a ratio of 1:5 to 1:20 by 1 to 2 passages per week.
Cell survival rate was measured using CellTiter-Glo 2.0 (produced by Promega Corp.). The cells were collected by an ordinary method, then suspended in a Waymouth's medium containing 10% fetal bovine serum, and seeded in a 96-well plate. The number of cells seeded per well was set to 2000 cells/50 μL. […] In addition to groups of each medicine alone, groups of both the medicines simultaneously added were prepared in parallel. […] Cell survival rates were calculated by adding 50 μL of CellTiter-Glo 2.0 solution to each well, incubating the cells at room temperature for 15 minutes, and then measuring the chemiluminescence intensity of each well using a plate reader (FlexStation 3). The cell survival rates in medicine addition were calculated as a ratio vs. the control group (100%) according to the following equation: Cell survival rate (%)=(Chemiluminescence intensity at the time of medicine addition)/(Chemiluminescence intensity of the control group)×100
Also, Fa (fraction of affect) values were calculated by subtracting a 1/100 value of the cell survival rate from 1. […]

[9] = test system: human endometrial cancer line AN3CA; test: Apoptosis induction, CellEvent Caspase-3/7 Green Detection, Compound 1 and MK2206 (Example 9); assay type: cell-based; settings: Compound 1 10 nM, MK2206 dihydrochloride 300 nM (free form), 24 hours
Description: as §2, with “MK2206 dihydrochloride” for “Compound 2”, “300 nM (in terms of a free form).” for “100 nM.”, “1” for “6”

[10] = test system: phosphorylated AKT; test: Western blot, intracellular phosphorylation of AKT in AN3CA (Example 11); assay type: cell-based, human; settings: Compound 1 10 and 100 nM, MK2206 dihydrochloride 5 μM
Description: The intracellular phosphorylation levels of ERK, AKT, mTOR and S6 were detected by Western blot method. […] Likewise, MK2206 dihydrochloride was added at a final concentration of 5 μM (in terms of a free form), and everolimus was added at a final concentration of 3 nM. Each medicine alone and each combination were studied. DMSO was added as a control at a final concentration of 0.2%. […] The amounts of phosphorylated AKT, phosphorylated ERK, phosphorylated mTOR, phosphorylated S6 and GAPDH were detected using Western blot according to an ordinary method.

[11] = test system: phosphorylated mTOR; test: Western blot, intracellular phosphorylation of mTOR in AN3CA (Example 11); assay type: cell-based, human; settings: everolimus 3 nM alone
Description: The intracellular phosphorylation levels of ERK, AKT, mTOR and S6 were detected by Western blot method. […] Likewise, MK2206 dihydrochloride was added at a final concentration of 5 μM (in terms of a free form), and everolimus was added at a final concentration of 3 nM. Each medicine alone and each combination were studied. DMSO was added as a control at a final concentration of 0.2%.
Then, cell lysates were prepared using RIPA Buffer [composition: 50 mM Tris-HCl (pH 8.0), 150 mM NaCl, 5 mM EDTA, 1% (w/w) Nonidet P-40, 0.1% (w/w) sodium deoxycholate, and 0.1% (w/w) SDS]. The amounts of phosphorylated AKT, phosphorylated ERK, phosphorylated mTOR, phosphorylated S6 and GAPDH were detected using Western blot according to an ordinary method.

[12] = test system: Human lung cancer line HCC4006; settings: 100 ng/mL FGF7, 72 hours
Description: (§3) Cell survival rates were measured using CellTiter-Glo. The cells were recovered by an ordinary method, suspended in the above medium containing 10% fetal bovine serum, and seeded in a 96-well plate. The number of cells seeded per well was set to 2000 cells/70 μL. […] In order to study effects on the activated FGF/FGFR pathway in the cells, a ligand FGF2 or FGF7 was added to the cells and compared with non-addition. […] DMSO was added to a control well, and 10 ng/mL FGF2 or 100 ng/mL FGF7 was added to the medium.
(§4) The cells were incubated at 37° C. for 72 hours under 5% CO2. Then, 100 μL of CellTiter-Glo solution was added to each well, and the cells were incubated at room temperature for 10 minutes, followed by the measurement of chemiluminescence intensity using a plate reader (ARVO). Growth inhibitory effects relative to the vehicle group were calculated from the obtained data.

[13] = test system: Human lung cancer line NCI-H1650; settings: 100 ng/mL FGF7, 72 hours
Description: as §3, §4

[14] = Compound 1 15 mg/kg/day orally once a day for 14 days, alone

C=CC(=O)N1CC[C@H](n2nc(C#Cc3cc(OC)cc(OC)c3)c3c(N)ncnc32)C1 [Compound 1, (S)-1-(3-(4-Amino-3-((3,5-dimethoxyphenyl)ethynyl)-1H-pyrazolo[3,4-d]pyrimidin-1-yl)pyrrolidin-1-yl)prop-2-en-1-one]
T/C (%) ([1]; Compound 1 5 mg/kg/day orally once a day for 14 days, day of assessment (Day 15)): 83.6%
T/C (%) ([1]; Compound 1 15 mg/kg/day orally once a day for 14 days, Day 15): 69.0%
T/C (%) ([2]; Compound 1 15 mg/kg/day orally each day for 14 days, alone): 42.1%
T/C (%) ([3]; Compound 1 15 mg/kg/day orally once a day for 14 days): 22.1%
T/C (%) [4, 14]: 46.0%
T/C (%) ([5]; Compound 1 15 mg/kg/day orally each day for 14 days): 33.3%
T/C (%) ([5]; Compound 1 50 mg/kg/day orally each day for 14 days): 12.6%
T/C (%) ([6]; Compound 1 5 mg/kg/day orally once a day for 14 days, alone): 83.6%
T/C (%) [6, 14]: 69.0%

CC1(O)CC(N)(c2ccc(-c3nc4n(c3-c3ccccc3)COc3ccncc3-4)cc2)C1 (stereo not drawn) [Compound 2, trans-3-amino-1-methyl-3-(4-(3-phenyl-5H-imidazo[1,2-c]pyrido[3,4-e][1,3]oxazin-2-yl)phenyl)cyclobutanol]
induction of cell death (Caspase 3/7 fluorescence signals) [7]: hardly found
IC50 [8]: 4.86 µM
T/C (%) ([3]; Compound 2 4 mg/kg/day orally once a day for 14 days): 58.6%
T/C (%) ([3]; Compound 2 8 mg/kg/day orally once a day for 14 days): 55.4%

NC1(c2ccc(-c3nc4ccn5c(=O)[nH]nc5c4cc3-c3ccccc3)cc2)CCC1 [MK2206 dihydrochloride, 8-[4-(1-aminocyclobutyl)phenyl]-9-phenyl-1,2,4-triazolo[3,4-f][1,6]naphthyridin-3(2H)-one]
induction of cell death (Caspase 3/7 fluorescence signals) [9]: hardly found
AKT phosphorylation [10]: inhibited

N.N.[Cl][Pt][Cl] [cisplatin]
T/C (%) ([4]; cisplatin 7 mg/kg/day tail vein at Day 1, alone): 53.0%
body weight change of the mice ([4]; mouse, in vivo): transient decrease in body weight

CO[C@H]1C[C@@H]2CC[C@@H](C)[C@@](O)(O2)C(=O)C(=O)N2CCCC[C@H]2C(=O)O[C@H]([C@H](C)C[C@@H]2CC[C@@H](OCCO)[C@H](OC)C2)CC(=O)[C@H](C)/C=C(\C)[C@@H](O)[C@@H](OC)C(=O)[C@H](C)C[C@H](C)/C=C/C=C/C=C/1C [everolimus, reference compound]
mTOR phosphorylation [11]: inhibited
T/C (%) ([5]; everolimus 2 mg/kg/day orally each day for 14 days): 27.1%

COc1cc2ncnc(Nc3ccc(F)c(Cl)c3)c2cc1OCCCN1CCOCC1 [gefitinib]
drug effect of gefitinib on addition of the FGFR ligand FGF7 [12]: attenuated
drug effect of gefitinib on addition of the FGFR ligand FGF7 [13]: attenuated

Nc1ccn([C@@H]2O[C@H](CO)[C@@H](O)C2(F)F)c(=O)n1 [gemcitabine, reference compound]
T/C (%) ([2]; gemcitabine 100 mg/kg/day tail vein at Day 1 and Day 8, alone): 75.5%

CC(=O)O[C@H]1C(=O)[C@@]2(C)[C@H]([C@H](OC(=O)c3ccccc3)[C@]3(O)C[C@H](OC(=O)[C@H](O)[C@@H](NC(=O)c4ccccc4)c4ccccc4)C(C)=C1C3(C)C)[C@]1(OC(C)=O)CO[C@@H]1C[C@@H]2O [paclitaxel, reference compound]
body weight change of the mice ([6]; paclitaxel 60 mg/kg, concomitant use group vs each medicine group): transient decrease in body weight
T/C (%) ([6]; paclitaxel single dose 60 mg/kg/day tail vein at Day 1, alone): 12.9%
